Reference: ChEMBL document CHEMBL1201861, “Genomics of Drug Sensitity in Cancer screening data, Wellcome Trust Sanger Institute”

Key:
Assay in all cases: cells
Assay type in all cases: functional, cell-based
Settings in all cases: Homo sapiens
COR-L105 = tested on: COR-L105;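 note: cell growth inhibition determined with a viability assay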
Description: SANGER: Inhibition of human COR-L105 cell growth in a cell viability assay.

CP50-MEL-B = tested on: CP50-MEL-B;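 note: growth inhibition of the human cell line, measured with a cell viability read-out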
Description: SANGER: Inhibition of human CP50-MEL-B cell growth in a cell viability assay.

DBTRG-05MG = tested on: DBTRG-05MG;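 note: cell viability assay measuring growth inhibition of human DBTRG-05MG cells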
Description: SANGER: Inhibition of human DBTRG-05MG cell growth in a cell viability assay.

DMS-273 = tested on: DMS-273
Description: SANGER: Inhibition of human DMS-273 cell growth in a cell viability assay.

DOK = tested on: DOK;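 note: cell viability assay read-out, values reflect inhibition of cell growth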
Description: SANGER: Inhibition of human DOK cell growth in a cell viability assay.

FTC-133 = tested on: FTC-133
G-361 = tested on: G-361
HCC1395 = tested on: HCC1395;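 note: growth inhibition of HCC1395 cells, read out by a cell viability assay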
Description: SANGER: Inhibition of human HCC1395 cell growth in a cell viability assay.

Hs-578T = tested on: Hs-578T
Description: SANGER: Inhibition of human Hs-578-T cell growth in a cell viability assay.

KYSE-140 = tested on: KYSE-140;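 note: cell viability assay measuring growth inhibition in human KYSE-140 cells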
Description: SANGER: Inhibition of human KYSE-140 cell growth in a cell viability assay.

LN-405 = tested on: LN-405
Description: SANGER: Inhibition of human LN-405 cell growth in a cell viability assay.

LU-99A = tested on: LU-99A;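 note: growth inhibition of LU-99A cells, read out with a cell viability assay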
Description: SANGER: Inhibition of human LU-99A cell growth in a cell viability assay.

MDA-MB-453 = tested on: MDA-MB-453
Description: SANGER: Inhibition of human MDA-MB-453 cell growth in a cell viability assay.

MHH-ES-1 = tested on: MHH-ES-1;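 note: cell growth inhibition measured by a cell viability assay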
Description: SANGER: Inhibition of human MHH-ES-1 cell growth in a cell viability assay.

MKN-28 = tested on: MKN-28;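 note: cell viability assay read-out, IC50 reflects suppression of growth of human MKN-28 cells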
Description: SANGER: Inhibition of human MKN28 cell growth in a cell viability assay.

MKN-7 = tested on: MKN-7;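 note: growth inhibition of MKN-7 cells, read out with a cell viability assay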
Description: SANGER: Inhibition of human MKN7 cell growth in a cell viability assay.

NCI-H1573 = tested on: NCI-H1573;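 note: growth inhibition of NCI-H1573 cells, read out with a cell viability assay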
Description: SANGER: Inhibition of human NCI-H1573 cell growth in a cell viability assay.

NCI-H1651 = tested on: NCI-H1651;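 note: Read-out is a cell viability assay, with IC50 expressing inhibition of NCI-H1651 cell growth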
Description: SANGER: Inhibition of human NCI-H1651 cell growth in a cell viability assay.

NCI-H1993 = tested on: NCI-H1993;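 note: growth inhibition of the cancer cell line, assessed with a cell viability assay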
Description: SANGER: Inhibition of human NCI-H1993 cell growth in a cell viability assay.

NCI-H2030 = tested on: NCI-H2030;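 note: growth inhibition of human NCI-H2030 cells, read out by a cell viability assay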
Description: SANGER: Inhibition of human NCI-H2030 cell growth in a cell viability assay.

NCI-H2342 = tested on: NCI-H2342;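 note: growth inhibition of the cancer cell line, determined with a cell viability assay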
Description: SANGER: Inhibition of human NCI-H2342 cell growth in a cell viability assay.

NCI-H520 = tested on: NCI-H520;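 note: growth inhibition of NCI-H520 cells, measured by a cell viability assay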
Description: SANGER: Inhibition of human NCI-H520 cell growth in a cell viability assay.

NCI-H661 = tested on: NCI-H661;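 note: cell viability assay read-out, IC50 being the concentration that inhibits growth of the cells by half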
Description: SANGER: Inhibition of human NCI-H661 cell growth in a cell viability assay.

NUGC-3 = tested on: NUGC-3;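 note: growth inhibition of human NUGC-3 cells, read out with a cell viability assay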
Description: SANGER: Inhibition of human NUGC-3 cell growth in a cell viability assay.

OE33 = tested on: OE33;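 note: growth inhibition of human OE33 cells, measured by a cell viability assay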
Description: SANGER: Inhibition of human OE33 cell growth in a cell viability assay.

Panc1005 = tested on: Panc1005;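 note: growth inhibition of human PANC-10-05 cells, measured by a cell viability assay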
Description: SANGER: Inhibition of human PANC-10-05 cell growth in a cell viability assay.

SBC-5 = tested on: SBC-5;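 note: cell viability assay read-out, IC50 is the concentration that inhibits growth of the cells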
Description: SANGER: Inhibition of human SBC-5 cell growth in a cell viability assay.

SK-MEL-28 = tested on: SK-MEL-28;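 note: growth inhibition of human SK-MEL-28 cells, read out with a cell viability assay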
Description: SANGER: Inhibition of human SK-MEL-28 cell growth in a cell viability assay.

SKG-IIIa = tested on: SKG-IIIa;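 note: cell growth inhibition, read out with a cell viability assay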
Description: SANGER: Inhibition of human SKG-IIIa cell growth in a cell viability assay.

SW626 = tested on: SW626;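 note: growth inhibition of SW626 cells, measured with a cell viability assay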
Description: SANGER: Inhibition of human SW626 cell growth in a cell viability assay.

SW837 = tested on: SW837;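 note: growth inhibition of SW837 cells, determined with a cell viability assay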
Description: SANGER: Inhibition of human SW837 cell growth in a cell viability assay.

T-24 = tested on: T-24;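 note: growth inhibition of T-24 cells, read out with a cell viability assay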
Description: SANGER: Inhibition of human T-24 cell growth in a cell viability assay.

T98G = tested on: T98G;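 note: growth inhibition of T98G cells, read out by a cell viability assay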
Description: SANGER: Inhibition of human T98G cell growth in a cell viability assay.

786-0 = tested on: 786-0
Description: SANGER: Inhibition of human 786-0 cell growth in a cell viability assay.

8505C = tested on: 8505C
Description: SANGER: Inhibition of human 8505C cell growth in a cell viability assay.

A-375 = tested on: A-375;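 note: growth inhibition of A375 cells, read out with a cell viability assay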
Description: SANGER: Inhibition of human A375 cell growth in a cell viability assay.

A-427 = tested on: A-427;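 note: growth inhibition of human A-427 cells, read out by a cell viability assay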
Description: SANGER: Inhibition of human A427 cell growth in a cell viability assay.

A-431 = tested on: A-431;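 note: growth inhibition of A-431 cells, determined with a cell viability read-out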
Description: SANGER: Inhibition of human A431 cell growth in a cell viability assay.

A673 = tested on: A673;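 note: growth inhibition of human A673 cells, read out through a cell viability assay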
Description: SANGER: Inhibition of human A673 cell growth in a cell viability assay.

BHT-101 = tested on: BHT-101
Description: SANGER: Inhibition of human BHT-101 cell growth in a cell viability assay.

BHY = tested on: BHY;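 note: cell growth inhibition read out by a viability assay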
Description: SANGER: Inhibition of human BHY cell growth in a cell viability assay.

CAL-33 = tested on: CAL-33;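 note: growth inhibition of CAL-33 cells, read out with a cell viability assay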
Description: SANGER: Inhibition of human CAL-33 cell growth in a cell viability assay.

CAL-54 = tested on: CAL-54;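 note: growth inhibition of CAL-54 cells, read out by a viability measurement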
Description: SANGER: Inhibition of human CAL-54 cell growth in a cell viability assay.

WM-115 = tested on: WM-115
Description: SANGER: Inhibition of human WM-115 cell growth in a cell viability assay.

CHL-1 = tested on: CHL-1;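 note: cell growth inhibition, read out with a cell viability assay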
Description: SANGER: Inhibition of human CHL-1 cell growth in a cell viability assay.

Question: What does the source list for `Cn1cc(/C=C2\C(=O)Nc3cccnc32)c2ccccc21`?
Answer: IC50 (COR-L105): 0.494 µM; IC50 (CP50-MEL-B): > 2 µM; IC50 (DBTRG-05MG): > 2 µM; IC50 (DMS-273): > 2 µM; IC50 (DOK): > 2 µM; IC50 (FTC-133): > 2 µM; IC50 (G-361): 0.211 µM; IC50 (HCC1395): > 2 µM; IC50 (Hs-578T): > 2 µM; IC50 (KYSE-140): > 2 µM; IC50 (LN-405): > 2 µM; IC50 (LU-99A): > 2 µM; IC50 (MDA-MB-453): > 2 µM; IC50 (MHH-ES-1): > 2 µM; IC50 (MKN-28): > 2 µM; IC50 (MKN-7): > 2 µM; IC50 (NCI-H1573): > 2 µM; IC50 (NCI-H1651): > 2 µM; IC50 (NCI-H1993): > 2 µM; IC50 (NCI-H2030): > 2 µM; IC50 (NCI-H2342): > 2 µM; IC50 (NCI-H520): > 2 µM; IC50 (NCI-H661): > 2 µM; IC50 (NUGC-3): > 2 µM; IC50 (OE33): > 2 µM; IC50 (Panc1005): > 2 µM; IC50 (SBC-5): > 2 µM; IC50 (SK-MEL-28): > 2 µM; IC50 (SKG-IIIa): > 2 µM; IC50 (SW626): > 2 µM; IC50 (SW837): > 2 µM; IC50 (T-24): 0.638 µM; IC50 (T98G): > 2 µM; IC50 (786-0): > 2 µM; IC50 (8505C): > 2 µM; IC50 (A-375): > 2 µM; IC50 (A-427): > 2 µM; IC50 (A-431): > 2 µM; IC50 (A673): > 2 µM; IC50 (BHT-101): > 2 µM; IC50 (BHY): > 2 µM; IC50 (CAL-33): > 2 µM; IC50 (CAL-54): > 2 µM; IC50 (WM-115): > 2 µM; IC50 (CHL-1): > 2 µM

Question: Which IC50 (COR-L105) does the source give for `O=c1cc(N2CCOCC2)oc2c(-c3cccc4c3sc3ccccc34)cccc12` here?
Answer: Its IC50 is greater than 2 µM.

Question: And the IC50 (CP50-MEL-B)?
Answer: The IC50 was greater than 2 µM.

Question: What about the IC50 (DBTRG-05MG) of the same molecule?
Answer: Its IC50 is greater than 2 µM.

Question: What about the IC50 (DMS-273) of the same molecule?
Answer: The IC50 was greater than 2 µM.

Question: And the IC50 (DOK)?
Answer: The IC50 was greater than 2 µM.

Question: What about the IC50 (FTC-133) of the same molecule?
Answer: The IC50 was greater than 2 µM.

Question: What about the IC50 (G-361) of the same molecule?
Answer: Its IC50 is greater than 2 µM.

Question: And the IC50 (HCC1395)?
Answer: The IC50 was greater than 2 µM.

Question: And the IC50 (Hs-578T)?
Answer: The IC50 was greater than 2 µM.

Question: What about the IC50 (KYSE-140) of the same molecule?
Answer: Its IC50 is greater than 2 µM.

Question: What about the IC50 (LN-405) of the same molecule?
Answer: Its IC50 is greater than 2 µM.

Question: What about the IC50 (LU-99A) of the same molecule?
Answer: The IC50 was greater than 2 µM.

Question: What about the IC50 (MDA-MB-453) of the same molecule?
Answer: Its IC50 is greater than 2 µM.

Question: What about the IC50 (MHH-ES-1) of the same molecule?
Answer: Its IC50 is greater than 2 µM.

Question: And the IC50 (MKN-28)?
Answer: The IC50 was greater than 2 µM.

Question: And the IC50 (MKN-7)?
Answer: The IC50 was greater than 2 µM.

Question: What about the IC50 (NCI-H1573) of the same molecule?
Answer: Its IC50 is greater than 2 µM.

Question: And the IC50 (NCI-H1651)?
Answer: The IC50 was greater than 2 µM.

Question: And the IC50 (NCI-H1993)?
Answer: The IC50 was greater than 2 µM.

Question: What about the IC50 (NCI-H2030) of the same molecule?
Answer: The IC50 was greater than 2 µM.

Question: And the IC50 (NCI-H2342)?
Answer: Its IC50 is greater than 2 µM.

Question: What about the IC50 (NCI-H520) of the same molecule?
Answer: The IC50 was greater than 2 µM.

Question: And the IC50 (NCI-H661)?
Answer: The IC50 was greater than 2 µM.

Question: And the IC50 (NUGC-3)?
Answer: Its IC50 is greater than 2 µM.

Question: And the IC50 (OE33)?
Answer: The IC50 was greater than 2 µM.

Question: And the IC50 (Panc1005)?
Answer: Its IC50 is greater than 2 µM.

Question: And the IC50 (SBC-5)?
Answer: The IC50 was greater than 2 µM.

Question: What about the IC50 (SK-MEL-28) of the same molecule?
Answer: Its IC50 is greater than 2 µM.

Question: What about the IC50 (SKG-IIIa) of the same molecule?
Answer: The IC50 was greater than 2 µM.

Question: And the IC50 (SW626)?
Answer: Its IC50 is greater than 2 µM.

Question: What about the IC50 (SW837) of the same molecule?
Answer: The IC50 was greater than 2 µM.

Question: What about the IC50 (T-24) of the same molecule?
Answer: Its IC50 is greater than 2 µM.

Question: What about the IC50 (T98G) of the same molecule?
Answer: The IC50 was greater than 2 µM.

Question: What about the IC50 (786-0) of the same molecule?
Answer: Its IC50 is greater than 2 µM.

Question: What about the IC50 (8505C) of the same molecule?
Answer: Its IC50 is greater than 2 µM.

Question: And the IC50 (A-375)?
Answer: The IC50 was greater than 2 µM.

Question: And the IC50 (A-427)?
Answer: The IC50 was greater than 2 µM.

Question: And the IC50 (A-431)?
Answer: The IC50 was greater than 2 µM.

Question: And the IC50 (A673)?
Answer: The IC50 was greater than 2 µM.

Question: What about the IC50 (BHT-101) of the same molecule?
Answer: The IC50 was greater than 2 µM.

Question: What about the IC50 (BHY) of the same molecule?
Answer: Its IC50 is greater than 2 µM.

Question: And the IC50 (CAL-33)?
Answer: Its IC50 is greater than 2 µM.

Question: And the IC50 (CAL-54)?
Answer: Its IC50 is greater than 2 µM.

Question: What about the IC50 (WM-115) of the same molecule?
Answer: Its IC50 is greater than 2 µM.

Question: What about the IC50 (CHL-1) of the same molecule?
Answer: The IC50 was 1.21 µM.

Question: `NC(=O)c1ncn([C@@H]2O[C@H](COP(=O)(O)O)[C@@H](O)[C@H]2O)c1N` was tested. Which IC50 (COR-L105) did it give?
Answer: Its IC50 is greater than 2000 µM.

Question: And the IC50 (CP50-MEL-B)?
Answer: Its IC50 is greater than 2000 µM.

Question: What about the IC50 (DBTRG-05MG) of the same molecule?
Answer: The IC50 was 1290 µM.

Question: And the IC50 (DMS-273)?
Answer: The IC50 was greater than 2000 µM.

Question: What about the IC50 (DOK) of the same molecule?
Answer: Its IC50 is 657 µM.

Question: And the IC50 (HCC1395)?
Answer: Its IC50 is greater than 2000 µM.

Question: And the IC50 (Hs-578T)?
Answer: The IC50 was greater than 2000 µM.

Question: What about the IC50 (KYSE-140) of the same molecule?
Answer: Its IC50 is 1730 µM.

Question: What about the IC50 (LN-405) of the same molecule?
Answer: Its IC50 is greater than 2000 µM.

Question: What about the IC50 (LU-99A) of the same molecule?
Answer: The IC50 was greater than 2000 µM.

Question: What about the IC50 (MDA-MB-453) of the same molecule?
Answer: The IC50 was greater than 2000 µM.

Question: What about the IC50 (MHH-ES-1) of the same molecule?
Answer: Its IC50 is 1510 µM.

Question: And the IC50 (MKN-28)?
Answer: The IC50 was greater than 2000 µM.

Question: And the IC50 (MKN-7)?
Answer: The IC50 was greater than 2000 µM.

Question: And the IC50 (NCI-H1573)?
Answer: Its IC50 is 353 µM.

Question: What about the IC50 (NCI-H1651) of the same molecule?
Answer: The IC50 was greater than 2000 µM.

Question: And the IC50 (NCI-H2030)?
Answer: The IC50 was 1510 µM.

Question: And the IC50 (NCI-H2342)?
Answer: Its IC50 is greater than 2000 µM.

Question: And the IC50 (NCI-H520)?
Answer: The IC50 was 744 µM.

Question: And the IC50 (NCI-H661)?
Answer: The IC50 was greater than 2000 µM.

Question: What about the IC50 (NUGC-3) of the same molecule?
Answer: Its IC50 is greater than 2000 µM.

Question: And the IC50 (OE33)?
Answer: The IC50 was 1330 µM.

Question: And the IC50 (Panc1005)?
Answer: Its IC50 is greater than 2000 µM.

Question: What about the IC50 (SBC-5) of the same molecule?
Answer: Its IC50 is 1480 µM.

Question: And the IC50 (SK-MEL-28)?
Answer: The IC50 was greater than 2000 µM.

Question: What about the IC50 (SKG-IIIa) of the same molecule?
Answer: Its IC50 is greater than 2000 µM.

Question: What about the IC50 (SW626) of the same molecule?
Answer: The IC50 was greater than 2000 µM.

Question: What about the IC50 (SW837) of the same molecule?
Answer: Its IC50 is greater than 2000 µM.

Question: And the IC50 (T-24)?
Answer: The IC50 was greater than 2000 µM.

Question: And the IC50 (T98G)?
Answer: Its IC50 is greater than 2000 µM.

Question: What about the IC50 (786-0) of the same molecule?
Answer: Its IC50 is 1080 µM.

Question: What about the IC50 (8505C) of the same molecule?
Answer: The IC50 was greater than 2000 µM.

Question: And the IC50 (A-375)?
Answer: Its IC50 is greater than 2000 µM.

Question: And the IC50 (A-427)?
Answer: The IC50 was greater than 2000 µM.

Question: And the IC50 (A-431)?
Answer: Its IC50 is greater than 2000 µM.

Question: And the IC50 (A673)?
Answer: The IC50 was greater than 2000 µM.

Question: And the IC50 (BHT-101)?
Answer: The IC50 was greater than 2000 µM.

Question: And the IC50 (BHY)?
Answer: The IC50 was 405 µM.

Question: What about the IC50 (CAL-33) of the same molecule?
Answer: The IC50 was 1310 µM.

Question: And the IC50 (CAL-54)?
Answer: The IC50 was greater than 2000 µM.

Question: What about the IC50 (WM-115) of the same molecule?
Answer: Its IC50 is greater than 2000 µM.

Question: What about the IC50 (CHL-1) of the same molecule?
Answer: The IC50 was greater than 2000 µM.
